According to publication PMC10108353, “Design and Pharmacological Characterization of α4β1 Integrin Cyclopeptide Agonists: Computational Investigation of Ligand Determinants for Agonism versus Antagonism” (Journal of Medicinal Chemistry, 2023):
Starred links: 1 amine or outer side, 2 acyl side, 3 side chain; linkers in the order of their positions; H or OH if unused. Positions of bridges follow the written chain, without caps; N, C: chain ends. Non-standard residues stand in square brackets, D forms with d. Residues, ends and D or L forms follow the SMILES beside them. Groups on a side chain read outwards from the residue. *: point of attachment. Phe(4-NH2) = Nc1ccc(C[C@H](N)C(=O)O)cc1; X1 = O=C(Cc1ccc(N[*:1])cc1)[*:2]; NH(2-Me-phenyl) = Cc1ccccc1N*; CO = O=C([*:1])[*:2]

Tests used:
α4β7 integrin = molecular target: T1, α4β7 integrin (Homo sapiens, UniProt P13612+P26010); experiment: cell-based; type: cell-based; conditions: for agonist or antagonist behaviour, MAdCAM-1/RPMI8866 α4β7: agonist = adhesion index >1, antagonist = adhesion index <1
T1 construct: RPMI8866 cells expressing α4β7 integrin to the ligand MAdCAM-1; endogenous in cells; host or cells: RPMI8866
T1 sequence (P13612 34-1032): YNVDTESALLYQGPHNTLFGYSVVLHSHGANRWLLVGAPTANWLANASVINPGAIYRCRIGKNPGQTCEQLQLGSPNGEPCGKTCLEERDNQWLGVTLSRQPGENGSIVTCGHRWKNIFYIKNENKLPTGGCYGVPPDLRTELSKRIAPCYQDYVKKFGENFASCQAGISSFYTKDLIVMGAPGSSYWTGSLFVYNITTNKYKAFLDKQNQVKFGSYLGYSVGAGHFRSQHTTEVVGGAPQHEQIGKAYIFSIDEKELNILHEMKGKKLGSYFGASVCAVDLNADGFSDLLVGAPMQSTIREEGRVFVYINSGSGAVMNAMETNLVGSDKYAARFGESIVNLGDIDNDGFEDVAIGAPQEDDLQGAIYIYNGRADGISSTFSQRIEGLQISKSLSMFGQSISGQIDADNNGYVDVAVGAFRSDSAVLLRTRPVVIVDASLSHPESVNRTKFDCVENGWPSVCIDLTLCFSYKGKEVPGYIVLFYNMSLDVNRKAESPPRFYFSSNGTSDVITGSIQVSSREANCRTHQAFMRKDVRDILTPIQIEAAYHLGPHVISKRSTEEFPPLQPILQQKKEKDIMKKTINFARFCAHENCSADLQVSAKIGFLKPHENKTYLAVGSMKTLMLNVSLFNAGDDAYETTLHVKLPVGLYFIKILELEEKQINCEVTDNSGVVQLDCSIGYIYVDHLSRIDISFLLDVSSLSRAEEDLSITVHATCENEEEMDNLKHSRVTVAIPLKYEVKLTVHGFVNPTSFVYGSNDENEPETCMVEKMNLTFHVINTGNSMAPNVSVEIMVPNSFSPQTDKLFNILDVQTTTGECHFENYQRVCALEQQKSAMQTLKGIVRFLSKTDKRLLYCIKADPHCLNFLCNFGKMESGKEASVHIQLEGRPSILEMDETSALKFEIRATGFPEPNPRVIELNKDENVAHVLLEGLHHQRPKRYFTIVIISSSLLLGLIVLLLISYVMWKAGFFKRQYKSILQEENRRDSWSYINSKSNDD
T1 sequence (P26010 20-798): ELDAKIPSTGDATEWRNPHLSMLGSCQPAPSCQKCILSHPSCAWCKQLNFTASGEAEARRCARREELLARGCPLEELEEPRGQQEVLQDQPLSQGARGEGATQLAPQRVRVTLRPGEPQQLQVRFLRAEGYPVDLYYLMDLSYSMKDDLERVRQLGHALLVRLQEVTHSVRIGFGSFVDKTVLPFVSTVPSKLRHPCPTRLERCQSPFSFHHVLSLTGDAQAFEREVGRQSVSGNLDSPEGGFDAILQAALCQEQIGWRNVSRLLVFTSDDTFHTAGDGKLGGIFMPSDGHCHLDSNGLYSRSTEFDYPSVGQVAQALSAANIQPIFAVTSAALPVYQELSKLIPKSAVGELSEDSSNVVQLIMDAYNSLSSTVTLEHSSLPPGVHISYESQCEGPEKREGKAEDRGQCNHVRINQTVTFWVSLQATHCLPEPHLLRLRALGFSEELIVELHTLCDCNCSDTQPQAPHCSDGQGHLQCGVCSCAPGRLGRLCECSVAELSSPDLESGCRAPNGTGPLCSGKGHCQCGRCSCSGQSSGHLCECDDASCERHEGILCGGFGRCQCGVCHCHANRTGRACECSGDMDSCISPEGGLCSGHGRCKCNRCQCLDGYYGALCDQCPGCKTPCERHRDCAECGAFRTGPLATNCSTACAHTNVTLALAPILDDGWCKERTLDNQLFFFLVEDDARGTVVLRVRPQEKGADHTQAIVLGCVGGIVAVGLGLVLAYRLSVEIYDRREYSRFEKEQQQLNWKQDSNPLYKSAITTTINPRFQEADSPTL
Text: mediated Jurkat cell adhesion to FN.

[1] = after 2 h, 37 °C, RP HPLC
Experimental: Enzymatic stability tests were carried out in triplicate and repeated three times using mouse serum (Sigma-Aldrich). Peptides was dissolved in Tris buffer pH 7.4 to a 10 mM concentration, and 10 mL aliquots were added to 190 mL of serum. Incubations were maintained at 37 °C, and 20 mL aliquots were sampled from the incubation mixtures at the indicated times of 0, 0.15, 0.5, 1.0, 2.0, and 3.0 h. Samples were diluted with 90 mL of CH3CN, and enzymatic activity was definitively stopped by adding 90 mL of 0.5% AcOH. After centrifugation (13 000g for 20 min), the supernatants were separated and the amount of remaining peptide was assessed by RP HPLC.

[2] = system: ERK1/2 phosphorylation mediated by α4β1 integrin; experiment: ERK1/2 phosphorylation in Jurkat E6.1 cells (Western blot); type: cell-based; conditions: compound 10^–7 to 10^–9 M, no FN, vs vehicle
Experimental: Intracellular signaling generated by the interaction of ECM components with α4β1 integrin produces an increase in the phosphorylation of cytoplasmatic second messengers such as ERK1/2 that contribute to α4 integrin-mediated cell functions.
Western blot analysis was performed as previously described, with the following modifications. […] On the other hand, after 1 h incubation with integrin antagonists, the cells were then seeded on FN (10 μg/mL) coated plates for 1 h. Integrin agonists were not incubated with FN. At the end of the incubation time, Jurkat E6.1 cells were lysed on ice using a mammalian protein extraction reagent (M-PER; Pierce, Rockford, IL) supplemented with a phosphatase inhibitor cocktail. Protein extracts were quantified using a BCA protein assay kit (Pierce), separated by 12% SDS-PAGE gel, transferred onto nitrocellulose membranes, and immunoblotted with anti-phospho-ERK1/2 (1:1000) (Cell Signaling Technology, Danvers, MA) or anti-total ERK1/2 antibodies (1:2500) (Cell Signaling Technology). Protocols for digital image acquisition and analysis have been previously described.[73] Densitometric analysis of the bands is reported (mean ± SD; n = 3); the amount of phosphorylated ERK1/2 (pERK1/2) is normalized to that of total ERK1/2 (totERK1/2). Experiments were replicated independently at least three times. Statistical analyses were performed using one-way ANOVA and the post hoc Newman–Keuls test.

α4β1 integrin [3] = molecular target: T2, α4β1 integrin (Homo sapiens, UniProt P05556+P13612); experiment: Jurkat E6.1 cell adhesion to FN; conditions: agonist = adhesion index >1, antagonist = adhesion index <1
Experimental: (§1) Cells were seeded in 96-well plates coated with the specific natural human recombinant ligands (Table 1) and allowed to adhere in the presence of increasing concentrations (10^–10 to 10^–4 M) of the synthesized CPPs before the determination of the number of adherent cells (as described in Experimental Section).
For adhesion assays on Jurkat E6.1, RPMI8866, or HL60 cells, black 96-well plates were coated overnight at 4 °C with VCAM-1 or ICAM-1 or MAdCAM-1 (5 μg/mL) or Fg (10 μg/mL). The cells were counted, stained with CellTracker green CMFDA (12.5 μM, 30 min at 37 °C, Life Technologies), and after three washes, were preincubated with increasing concentrations of new CPP (10^–10 to 10^–4 M) or with the vehicle (methanol) for 30 min at 37 °C. Then cells were plated (500 000/well) on coated wells and incubated for 30 min at 37 °C. After three washes, adhered cells were lysed with 0.5% Triton X-100 in PBS (30 min at 4 °C) and fluorescence was measured (Ex485 nm/Em535 nm) in an EnSpire Multimode Plate Reader (PerkinElmer, Waltham, MA). For adhesion assays mediated by α5β1 integrin, 96-well plates were coated by passive adsorption with FN (10 μg/mL) overnight at 4 °C. K562 cells were counted and preincubated with various concentrations of the peptides or with the vehicle (methanol) for 30 min at RT. Afterward, the cells were plated (50 000 cells/well) and incubated at RT for 1 h. The wells were then washed with 1% BSA in PBS (phosphate-buffered saline) to take off nonadherent cells, and 50 μL of hexosaminidase substrate was added; after addition of 100 μL of stopping solution, the plates were read at 405 nm. In both types of adhesion assay, the number of adherent cells was determined by comparison with a standard curve made in the same plate. Experiments were carried out in quadruplicate and repeated at least three times.
Jurkat E6.1 (expressing α4β1 and αLβ2 integrin), K562 (expressing α5β1 integrin) and HL60 (expressing αMβ2 integrin) cell lines were purchased from ATCC (Rockville, MD, USA); these cells were routinely cultured in RPMI-1640 (Life Technologies) supplemented with glutamine and 10% FBS.
Cells were grown at 37 °C under 5% CO2 humidified atmosphere.

α4β1 integrin [4] = molecular target: T2, α4β1 integrin; experiment: Jurkat E6.1 cell adhesion to VCAM-1; conditions: agonist = adhesion index >1, antagonist = adhesion index <1
Experimental: as §1
For adhesion assays on Jurkat E6.1, RPMI8866, or HL60 cells, black 96-well plates were coated overnight at 4 °C with VCAM-1 or ICAM-1 or MAdCAM-1 (5 μg/mL) or Fg (10 μg/mL). The cells were counted, stained with CellTracker green CMFDA (12.5 μM, 30 min at 37 °C, Life Technologies), and after three washes, were preincubated with increasing concentrations of new CPP (10^–10 to 10^–4 M) or with the vehicle (methanol) for 30 min at 37 °C. Then cells were plated (500 000/well) on coated wells and incubated for 30 min at 37 °C. After three washes, adhered cells were lysed with 0.5% Triton X-100 in PBS (30 min at 4 °C) and fluorescence was measured (Ex485 nm/Em535 nm) in an EnSpire Multimode Plate Reader (PerkinElmer, Waltham, MA). For adhesion assays mediated by α5β1 integrin, 96-well plates were coated by passive adsorption with FN (10 μg/mL) overnight at 4 °C. K562 cells were counted and preincubated with various concentrations of the peptides or with the vehicle (methanol) for 30 min at RT. Afterward, the cells were plated (50 000 cells/well) and incubated at RT for 1 h. The wells were then washed with 1% BSA in PBS (phosphate-buffered saline) to take off nonadherent cells, and 50 μL of hexosaminidase substrate was added; after addition of 100 μL of stopping solution, the plates were read at 405 nm. In both types of adhesion assay, the number of adherent cells was determined by comparison with a standard curve made in the same plate. Experiments were carried out in quadruplicate and repeated at least three times. […]

α4β1 integrin [5] = system: α4β1 integrin; parameters: method as in PMID 23703610; conditions: low affinity agonist; cited from earlier work
αLβ2 integrin = αLβ2 integrin (Homo sapiens, UniProt P05107+P20701); experiment: Jurkat E6.1 cell adhesion to ICAM-1
Chain of αLβ2 integrin (P20701 26-1170): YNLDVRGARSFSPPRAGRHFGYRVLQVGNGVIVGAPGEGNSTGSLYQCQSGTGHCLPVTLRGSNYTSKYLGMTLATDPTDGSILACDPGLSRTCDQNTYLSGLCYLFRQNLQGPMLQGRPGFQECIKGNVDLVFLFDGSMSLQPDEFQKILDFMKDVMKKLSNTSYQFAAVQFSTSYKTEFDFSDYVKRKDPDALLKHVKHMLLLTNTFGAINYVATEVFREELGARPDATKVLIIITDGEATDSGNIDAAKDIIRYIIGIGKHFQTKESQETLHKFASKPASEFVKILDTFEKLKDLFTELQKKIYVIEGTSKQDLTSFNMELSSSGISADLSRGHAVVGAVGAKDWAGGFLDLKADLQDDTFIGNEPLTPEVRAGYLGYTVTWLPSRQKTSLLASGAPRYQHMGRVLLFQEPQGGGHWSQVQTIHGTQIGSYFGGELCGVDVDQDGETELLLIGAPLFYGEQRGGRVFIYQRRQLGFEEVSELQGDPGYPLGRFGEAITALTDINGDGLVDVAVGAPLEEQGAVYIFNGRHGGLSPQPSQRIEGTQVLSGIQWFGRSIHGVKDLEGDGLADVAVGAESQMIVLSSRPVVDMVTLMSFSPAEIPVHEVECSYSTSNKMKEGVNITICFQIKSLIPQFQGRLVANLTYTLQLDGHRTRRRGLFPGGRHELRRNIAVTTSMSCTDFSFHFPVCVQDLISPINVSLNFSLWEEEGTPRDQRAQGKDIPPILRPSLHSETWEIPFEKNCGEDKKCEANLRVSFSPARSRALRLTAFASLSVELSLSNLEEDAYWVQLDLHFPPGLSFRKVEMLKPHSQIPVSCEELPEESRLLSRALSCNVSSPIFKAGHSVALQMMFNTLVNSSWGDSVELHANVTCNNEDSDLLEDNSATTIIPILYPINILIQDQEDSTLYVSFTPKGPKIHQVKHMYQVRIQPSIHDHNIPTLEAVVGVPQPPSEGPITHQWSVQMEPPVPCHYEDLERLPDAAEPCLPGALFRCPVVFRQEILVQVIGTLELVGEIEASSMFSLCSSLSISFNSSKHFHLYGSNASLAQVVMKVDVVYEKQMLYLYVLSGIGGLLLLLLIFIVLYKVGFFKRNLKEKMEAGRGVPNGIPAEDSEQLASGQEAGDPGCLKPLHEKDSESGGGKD
Chain of αLβ2 integrin (P05107 23-769): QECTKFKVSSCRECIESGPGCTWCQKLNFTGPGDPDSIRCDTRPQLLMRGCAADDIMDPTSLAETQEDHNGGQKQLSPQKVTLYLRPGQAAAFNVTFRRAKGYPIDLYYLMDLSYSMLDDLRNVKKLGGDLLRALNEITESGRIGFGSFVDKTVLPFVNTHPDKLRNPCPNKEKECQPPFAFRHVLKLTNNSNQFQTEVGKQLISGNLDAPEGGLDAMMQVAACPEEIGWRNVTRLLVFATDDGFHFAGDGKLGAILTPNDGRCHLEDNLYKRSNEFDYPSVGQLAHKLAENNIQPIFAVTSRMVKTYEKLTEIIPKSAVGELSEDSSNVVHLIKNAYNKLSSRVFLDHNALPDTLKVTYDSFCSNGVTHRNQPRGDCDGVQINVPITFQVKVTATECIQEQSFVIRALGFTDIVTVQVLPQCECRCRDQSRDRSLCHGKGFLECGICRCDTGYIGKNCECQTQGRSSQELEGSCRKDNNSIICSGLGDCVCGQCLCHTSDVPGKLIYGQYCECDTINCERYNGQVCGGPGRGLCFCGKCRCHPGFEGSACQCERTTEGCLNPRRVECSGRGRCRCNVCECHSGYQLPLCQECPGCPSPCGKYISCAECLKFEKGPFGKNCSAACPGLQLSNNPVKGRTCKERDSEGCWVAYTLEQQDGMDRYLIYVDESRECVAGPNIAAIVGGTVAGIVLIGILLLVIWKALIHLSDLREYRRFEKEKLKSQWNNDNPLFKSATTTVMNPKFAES
Experimental: as §1
For adhesion assays on Jurkat E6.1, RPMI8866, or HL60 cells, black 96-well plates were coated overnight at 4 °C with VCAM-1 or ICAM-1 or MAdCAM-1 (5 μg/mL) or Fg (10 μg/mL). The cells were counted, stained with CellTracker green CMFDA (12.5 μM, 30 min at 37 °C, Life Technologies), and after three washes, were preincubated with increasing concentrations of new CPP (10^–10 to 10^–4 M) or with the vehicle (methanol) for 30 min at 37 °C. […] After three washes, adhered cells were lysed with 0.5% Triton X-100 in PBS (30 min at 4 °C) and fluorescence was measured (Ex485 nm/Em535 nm) in an EnSpire Multimode Plate Reader (PerkinElmer, Waltham, MA). […] K562 cells were counted and preincubated with various concentrations of the peptides or with the vehicle (methanol) for 30 min at RT. […] The wells were then washed with 1% BSA in PBS (phosphate-buffered saline) to take off nonadherent cells, and 50 μL of hexosaminidase substrate was added; after addition of 100 μL of stopping solution, the plates were read at 405 nm. […]

T2 sequence (P05556 21-798, one chain of several): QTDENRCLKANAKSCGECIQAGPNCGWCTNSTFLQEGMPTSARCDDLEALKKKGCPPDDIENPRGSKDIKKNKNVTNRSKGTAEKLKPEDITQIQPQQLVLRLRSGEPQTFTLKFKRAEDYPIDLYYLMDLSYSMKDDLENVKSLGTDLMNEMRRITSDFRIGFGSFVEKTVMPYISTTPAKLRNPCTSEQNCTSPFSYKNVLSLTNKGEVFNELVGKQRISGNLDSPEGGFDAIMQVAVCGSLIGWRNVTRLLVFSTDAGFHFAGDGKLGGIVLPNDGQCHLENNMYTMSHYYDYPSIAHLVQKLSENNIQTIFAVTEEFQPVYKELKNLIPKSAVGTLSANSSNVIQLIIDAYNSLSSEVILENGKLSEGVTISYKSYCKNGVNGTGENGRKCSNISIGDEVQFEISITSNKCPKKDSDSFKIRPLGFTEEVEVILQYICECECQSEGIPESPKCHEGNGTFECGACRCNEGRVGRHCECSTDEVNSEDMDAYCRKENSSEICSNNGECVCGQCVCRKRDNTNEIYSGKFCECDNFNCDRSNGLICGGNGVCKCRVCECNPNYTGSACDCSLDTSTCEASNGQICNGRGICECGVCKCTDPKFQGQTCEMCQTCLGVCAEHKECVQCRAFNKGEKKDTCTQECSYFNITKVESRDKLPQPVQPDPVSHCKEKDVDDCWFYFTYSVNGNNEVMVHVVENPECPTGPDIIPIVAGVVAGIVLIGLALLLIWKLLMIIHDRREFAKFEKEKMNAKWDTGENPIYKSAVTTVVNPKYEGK

SMILES | agonist or antagonist behaviour, MAdCAM-1/RPMI8866 α4β7 (α4β7 integrin) | stability in mouse serum [1] | effect on ERK1/2 phosphorylation, compound administered alone [2] | agonist or antagonist behaviour, FN/Jurkat E6.1 α4β1 (α4β1 integrin [3]) | agonist or antagonist behaviour, VCAM-1/Jurkat E6.1 α4β1 (α4β1 integrin [4]) | IC50 (α4β1 integrin [5]) | IC50 (α4β7 integrin) | IC50 (αLβ2 integrin)
Cc1ccccc1NC(=O)Nc1ccc(CC(=O)N[C@@H](CC(C)C)C(=O)N[C@@H](CC(=O)O)C(=O)N[C@H](C(=O)N2CCC[C@H]2C(=O)O)C(C)C)cc1 [BIO1211, MPUPA-LDVP-OH] ({NH(2-Me-phenyl)-CO}-[X1]LDVP-OH) | inactive | almost completely hydrolyzed | – | – | – | – | – | –
Cc1ccccc1NC(=O)Nc1ccc(C[C@@H]2NC(=O)C[C@@H](C(=O)O)NC(=O)[C@H](C(C)C)NC(=O)[C@H](CC(=O)O)NC(=O)[C@H](CC(C)C)NC2=O)cc1 [3a, c[(S)-Phu-Leu-Asp-Val-(S)-isoAsp]] ([Phe(4-NH2)]([CO-NH(2-Me-phenyl)])LDVD-OH; lactam N-5 (inferred)) | agonist | – | significant concentration-dependent increase of ERK1/2 phosphorylation | agonist | agonist | – | – | –
CCCC[C@@H](COC(=O)N(Cc1cccs1)Cc1cccs1)NC(=O)N[C@@H](CC(=O)OC)c1ccc2c(c1)OCO2 [THI0019] | – | – | – | – | – | 1000 to 2000 µM | – | –
Cc1ccccc1NC(=O)Nc1ccc(C[C@@H]2NC(=O)C[C@@H](C(=O)O)NC(=O)[C@H](C(C)C)NC(=O)[C@H](C)NC(=O)[C@H](CC(C)C)NC2=O)cc1 [12a, c[(S)-Phu-Leu-Ala-Val-(S)-isoAsp]] ([Phe(4-NH2)]([CO-NH(2-Me-phenyl)])LAVD-OH; lactam N-5 (inferred)) | completely lost activity | – | significant concentration-dependent increase of ERK1/2 phosphorylation | agonist | agonist | – | > 5 µM | > 5 µM
